From publication PMC11464717, “Structural basis for antibiotic transport and inhibition in PepT2” (Nature Communications, 2024)
Values joined by “and” are separate entries in the source; they are usually repeats but may differ in a detail not shown here. Equal values may be shown once. Read-outs that look alike come from different tables or passages of the source. Values belong to the molecule of their own block, whether it stands above or below them. Where a SMILES comes first, the peptide text is derived from it.

Legend:
[1] = target: T1, rat PepT2 (Rattus norvegicus, UniProt Q63424); assay: Counterflow transport assay in PepT2 proteoliposomes; assay type: biochemical; details: for Counterflow activity relative to L-Ala-L-Ala: Supplementary Table 2, RnPepT2 reconstituted liposome assay; for Ability to drive transport in counterflow: result in words, cloxacillin also at 10 mM; for Counterflow transport, individual experiments (source data Fig 1d): relative to di-alanine
T1 construct: His-tagged GFP (C, cleaved yes); made in house; host or cells: HEK293F cells
T1 sequence (Q63424 1-729): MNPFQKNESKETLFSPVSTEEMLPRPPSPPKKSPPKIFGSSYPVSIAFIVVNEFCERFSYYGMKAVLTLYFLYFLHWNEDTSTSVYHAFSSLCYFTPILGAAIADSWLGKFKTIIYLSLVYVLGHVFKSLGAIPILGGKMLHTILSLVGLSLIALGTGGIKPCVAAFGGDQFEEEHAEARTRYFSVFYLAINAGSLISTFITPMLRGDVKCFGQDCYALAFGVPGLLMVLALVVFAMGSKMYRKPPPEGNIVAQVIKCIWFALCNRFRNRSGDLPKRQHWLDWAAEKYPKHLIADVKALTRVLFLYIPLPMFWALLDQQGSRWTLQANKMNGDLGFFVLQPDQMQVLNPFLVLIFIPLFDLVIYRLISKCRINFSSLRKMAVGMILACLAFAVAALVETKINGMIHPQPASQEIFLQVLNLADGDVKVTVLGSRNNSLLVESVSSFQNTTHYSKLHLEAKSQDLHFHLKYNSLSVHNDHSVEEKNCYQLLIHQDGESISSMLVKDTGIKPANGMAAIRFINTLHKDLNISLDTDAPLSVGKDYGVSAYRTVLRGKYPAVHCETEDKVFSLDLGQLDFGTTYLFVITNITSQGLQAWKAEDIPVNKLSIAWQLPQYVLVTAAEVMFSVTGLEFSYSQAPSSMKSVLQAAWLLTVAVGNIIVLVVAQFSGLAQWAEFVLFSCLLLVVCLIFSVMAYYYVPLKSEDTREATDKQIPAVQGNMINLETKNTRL
Procedure: (§1) PepT2 was reconstituted into liposomes consisting of a 3:1 POPE:POPG (Avanti polar lipids, USA, Cat. No. 850757 C, 840457 C) using biobeads. The lipids were dried to obtain a thin film using a rotary evaporator and washed twice in pentane before being resuspended at 10 mg mL^–1 in lipid buffer (50 mM potassium phosphate at pH 7.5). These lipid vesicles were frozen and thawed twice in liquid nitrogen and stored at −80 °C until required. For reconstitution, the lipids were thawed and then extruded first through a 0.8-μm filter and then through a 0.4-μm filter. Purified PepT2 at 0.3 μg μl^−1 was added to the lipids at a final lipid:protein ratio of 100:1 (w/w) for transport assays or 10:1 for solid support membrane (SSM) experiments and incubated for 1 h at room temperature, then for a further 1 h on ice. After this time, biobeads were added in batches. After 24 h biobeads were removed and the proteoliposomes harvested by centrifugation at 120,000 g for 40 min before resuspension in lipid buffer at a final protein concentration of 0.25 μg μl^−1, or 0.5 ug ul^−1 for liposomes for SSM. They were subjected to three rounds of freeze–thawing in liquid nitrogen before storage at −80 °C.
Proteoliposomes were harvested through centrifugation before resuspending in counterflow buffer (50 mM potassium phosphate pH 7.5) containing 0.5 mM peptide or antibiotic (unless stated otherwise) or water as the negative control and were subjected to four rounds of freeze thawing in liquid nitrogen to fully distribute the buffer and ligand. The proteoliposomes were then extruded through a 0.2-μm filter. Transport was initiated by diluting into counterflow buffer containing 40 μM di-alanine with trace amounts of ^3H di-alanine, transport was allowed to proceed for 5 minutes before termination of the experiments through rapidly filtering onto 0.22-μm filters, which were then washed with 2 × 2 mL cold water. The amount of peptide transported inside the liposomes was calculated as above. Experiments were performed a minimal of five times and plotted as the level of transport for each ligand compared to the level observed with di-alanine as a percentage.

[2] = target: T1, rat PepT2; assay: Inhibition of uptake of radioactive di-alanine peptide into PepT2 proteoliposomes (IC50); assay type: biochemical
Procedure: as §1, with “The” for “PepT2 was reconstituted into liposomes consisting of a 3:1 POPE:POPG (Avanti polar lipids, USA, Cat. No. 850757 C, 840457 C) using biobeads. The”
The reaction was initiated through the addition of valinomycin at 1 μM and stopped after 4 minutes by rapidly filtering onto 0.22-μm filters, which were then washed with 2 × 2 mL cold water. […] Experiments were performed three times (from at least 2 independent purifications and reconstitutions) to generate an overall mean and s.d.

[3] = target: T1, rat PepT2; assay: SSM-based electrophysiology (SURFE2R) of reconstituted PepT2; assay type: biochemical; details: result in words
Procedure: as §1
SSM-based assays were performed on a SURFE^2R N1 (Nanion Technologies) with sensors prepared as follows. 50 μl of 0.5 mM 1-octadecanethiol solution in isopropanol was added to the sensor and left overnight. The sensor was rinsed three times with isopropanol and then three times with water before being allowed to dry. 1.5 ul of 7.5 μg/μl 1,2-diphytanoyl-sn-glycero-3-phosphocholin in n-decane was applied to the surface of the sensor. Immediately after this 50 ul of non-activating buffer were added and left for an hour at room temperature. Proteoliposomes were diluted (5 ul liposomes with 36 ul buffer) in non-activating buffer (20 mM HEPES, 140 mM KCl, 2 mM MgCl2 pH 7.2) and sonicated four times for 10 s in a water bath before application (2–6 μl) to the prepared 3 mm sensors. Sensors were incubated at room temperature and centrifugation at 2800 g for 30 min at 10 °C and incubated at room temperature for at least an hour prior to assaying. The activating buffer was made with the desired concentration of ligand (alanine, di-alanine, or the antibiotics of interest) in non-activating buffer. A single solution exchange workflow was used with activating buffer applied at 1 s and removed at 2 s. This technique was used to distinguish between antibiotics substrate (gives a current, similar to a known peptide control – di-alanine) and inhibitor (no current observed similar to a known non substrate, alanine) and raw traces from 1–3 s are shown in Fig. 1.

[4] = target: PepT2; details: cell-based assays, inhibition of a radioactive reporter peptide; cited from earlier work
[5] = target: T2, PepT2 (SLC15A2) from Rattus norvegicus (Rattus norvegicus, UniProt Q63424)
T2 construct: Proton-coupled peptide transporter PepT2 (SLC15A2), Rattus norvegicus; The extracellular domain is in the protein but was not built in the deposited models; also called rat PepT2; ratPepT2; source: HEK293F, transfected, purified (nickel NTA, TEV cleavage, SEC) in DDM:CHS; also reconstituted into POPE:POPG liposomes; not shown: GFP, C-terminal, cleaved; His tag, C-terminal, cleaved

[6] = target: T2, PepT2 (SLC15A2) from Rattus norvegicus; assay: cryo-EM structure; PepT2 after size exclusion (DDM:CHS) mixed with 1 mM antibiotic (cefadroxil, amoxicillin or cloxacillin) for one hour, then 1.2 molar excess of nanobody D8, on ice for at least 30 min; PepT2 at 5-6 mg/mL; details: both partners purified
[7] = 5 min, read-out: Counterflow activity relative to L-Ala-L-Ala
[8] = Supplementary Table 2, RnPepT2 reconstituted liposome assay, read-out: IC50 (µM) relative to L-Ala-L-Ala
[9] = rat PepT2 in liposomes, inhibition of 3H di-alanine uptake, 4 minutes, mean of n = 3 (SD), read-out: IC50
[10] = single independent experiments, 3 per ligand, read-out: IC50, individual experiments (source data Fig 1c)
[11] = IC50, rat PepT2 in liposomes, inhibition of 3H di-alanine uptake, 4 minutes, mean of n = 3 (SD)
[12] = 0.5 mM ligand, listed as Ala-Ala

Molecule: CC1(C)S[C@@H]2[C@H](NC(=O)Cc3ccccc3)C(=O)N2[C@H]1C(=O)O [Benzylpenicillin, benzylpenicillin]
- Counterflow transport, individual experiments (source data Fig 5a) ([1]; 10 mM ligand): 7.2 and 6.8 and 6.2 and 4.1
- Counterflow activity relative to L-Ala-L-Ala [1, 7]: 0%
- Ability to drive transport in counterflow [1]: cannot transport

Molecule: CC1(C)S[C@@H]2[C@H](NC(=O)[C@H](N)c3ccccc3)C(=O)N2[C@H]1C(=O)O [Ampicillin, ampicillin]
- IC50 [2, 11]: 750 µM

Molecule: C[C@H](N)C(=O)N[C@@H](C)C(=O)O [di-alanine, L-Ala-L-Ala] (H-Ala-Ala-OH)
- IC50 [2, 9]: 32 µM
- IC50 ([2]; single independent experiments, 3 per ligand, listed as Ala-Ala, read-out: IC50, individual experiments (source data Fig 1c)): 34.6 µM and 31.2 µM and 29.4 µM
- Counterflow transport, individual experiments (source data Fig 1d) [1, 12]: 100 and 99.8 and 108.7 and 97.1 and 95.2
- Counterflow transport, individual experiments (source data Fig 5a) [1, 12]: 97.2 and 101.1 and 99.1 and 100.3
- Counterflow activity relative to L-Ala-L-Ala [1]: 100
- Capacitance change / current on solid support membrane [3]: significant capacitance change

Molecule: C[C@H](N)C(=O)O [alanine]
- Capacitance change / current on solid support membrane [3]: non-transported

Molecule: CC1=C(C(=O)O)N2C(=O)[C@@H](NC(=O)[C@H](N)c3ccc(O)cc3)[C@H]2SC1 [Cefadroxil, cefadroxil]
- IC50 [2, 8]: 20 µM
- IC50 [2, 9]: 19 µM
- IC50 [2, 10]: 22 µM and 17 µM
- Counterflow transport, individual experiments (source data Fig 1d) ([1]; 0.5 mM ligand): 117 and 120.6 and 118 and 125 and 128
- Counterflow activity relative to L-Ala-L-Ala [1, 7]: 120%
- Ability to drive transport in counterflow [1]: more effectively than di-alanine
- Capacitance change / current on solid support membrane [3]: significant capacitance change
- Ki [4]: 3 µM

Molecule: Cc1onc(-c2ccccc2Cl)c1C(=O)N[C@@H]1C(=O)N2[C@@H]1SC(C)(C)[C@@H]2C(=O)O [Cloxacillin, cloxacillin]
- IC50 [2, 11]: 203 µM
- IC50 [2, 10]: 180 µM and 220 µM and 210 µM
- Counterflow transport, individual experiments (source data Fig 1d) ([1]; 0.5 mM ligand): 4.1 and 3.2 and 4 and 1 and 3.1
- Counterflow transport, individual experiments (source data Fig 1d) ([1]; 10 mM ligand): 2.7 and 1.2 and 5.4 and 3.4 and 2.5
- Counterflow activity relative to L-Ala-L-Ala [1, 7]: 0%
- Ability to drive transport in counterflow [1]: unable to drive transport
- Ki [4]: 1000 µM

Molecule: CO[C@@]1(NC(=O)C(C(=O)O)c2ccc(O)cc2)C(=O)N2C(C(=O)O)=C(CSc3nnnn3C)CO[C@@H]21 (stereo partly drawn) [Moxalactam, moxalactam]
- IC50 [2, 9]: 500 µM
- Counterflow transport, individual experiments (source data Fig 5a) ([1]; 1 mM ligand): 5.6 and 5.3 and 6.5 and 4.2
- Counterflow activity relative to L-Ala-L-Ala [1, 7]: 0%
- Ability to drive transport in counterflow [1]: cannot transport

Second part, led by results:

- IC50 [2, 8]: 1200 µM
- IC50 ([2]; rat PepT2 in liposomes, inhibition of 3H di-alanine uptake, read-out: IC50): 1000 µM
- Counterflow transport, individual experiments (source data Fig 5a) ([1]; 4 mM ligand): 6.7 and 5.6 and 6.9
- Counterflow activity relative to L-Ala-L-Ala [1, 7]: 0%
- Ability to drive transport in counterflow [1]: cannot transport
Molecule: Nc1nc(/C(=C/CC(=O)O)C(=O)N[C@@H]2C(=O)N3C(C(=O)O)=CCS[C@H]23)cs1 [Ceftibuten, ceftibuten]

- Counterflow transport, individual experiments (source data Fig 1d) ([1]; 0.5 mM ligand): 3.8 and 4.1 and 6.1 and 5.4
Molecule: N[C@@H](CCCCNC(=O)OCc1ccc([N+](=O)[O-])cc1)C(=O)N1CCC[C@H]1C(=O)O [LZNP, Lys [Z(NO2)]-Proline]

- IC50 [2, 9]: 270 µM
- IC50 [2, 10]: 225 µM and 301 µM and 280 µM
- Counterflow transport, individual experiments (source data Fig 1d) ([1]; 0.5 mM ligand, listed as Amoxacillin): 29 and 39.2 and 34.1 and 35 and 28
- Counterflow activity relative to L-Ala-L-Ala [1, 7]: 33%
- Capacitance change / current on solid support membrane [3]: significant capacitance change
Molecule: CC1(C)S[C@@H]2[C@H](NC(=O)[C@H](N)c3ccc(O)cc3)C(=O)N2[C@H]1C(=O)O [Amoxicillin, amoxicillin]
- Ki [4]: 200 to 430 µM

- IC50 of inhibition of the uptake of radioactive (3H) di-alanine into PepT2 proteoliposomes [5]: 32 µM
Molecule: di-alanine peptide

- IC50 [2, 10]: 55 µM and 58 µM and 42 µM
- Counterflow transport, individual experiments (source data Fig 5a) ([1]; 0.5 mM ligand): 82 and 72.2 and 77.1 and 71.3
- Counterflow activity relative to L-Ala-L-Ala [1, 7]: 76%
- Counterflow activity relative to di-alanine ([1]; uptake of 3H di-alanine, 5 minutes, level relative to di-alanine, 0.5 mM ligand unless stated otherwise): 76%
Molecule: N[C@@H](C(=O)N[C@@H]1C(=O)N2C(C(=O)O)=C(Cl)CS[C@H]12)c1ccccc1 [Cefaclor, cefaclor]

- binding result [6]: binds
B1: nanobody (D8) (VHH)
VHH: QVQLVESGGGLVQPGGSLRLLCVASGRPFNDYDMGWFRQAPGKEREFVASISWSGRVTDYSDSMKGRCTVSRDNAKGTMFLQMSNLVPRDTAVYYCAAARRRWTFKATNTEEFYETWGQGTQVTVSS
notes: The nanobody was in the complexes solved here (PDB 9BIR, 9BIS, 9BIT, 9BIU); Its expression plasmid is deposited at Addgene; also called the nanobody
